Patent US20220009914A1, “Analogs of Nitrofuran Antibiotics to Combat Resistance” (The Trustees of Indiana University, priority 2020, published 2022)
Read-outs that look alike come from different tables or passages of the source.

Legend:
E. coli GroEL = molecular target: T1, E. coli GroEL (Escherichia coli, UniProt P0A6F5); experiment: GroEL-mediated ATPase assay; assay type: biochemical
T1 construct: made in house; host or cells: NEB 5-alpha E. coli
Procedure: Evaluating compounds for inhibition in the GroEL-mediated ATPase assay. All compounds were evaluated for inhibiting E. coli GroEL-mediated ATPase activity as per our previously reported procedure although employing only GroEL in solution and not containing GroES or denatured MDH. Evaluating compounds for inhibition in the GroEL-mediated ATPase assay.
Reagent preparation: For this assay, four primary reagent solutions were prepared: 1) GroEL protein solution; 2) ATP initiation solution; 3) EDTA quench solution; 4) malachite green reporter solution. The GroEL protein solution consisted of 100 nM of GroEL in folding buffer (50 mM Tris-HCl, pH 7.4, 50 mM KCl, 10 mM MgCl2, and 1 mM DTT), which was prepared immediately prior to dispensing into the assay plates. For the ATP initiation solution, ATP solid was diluted into folding buffer to a final concentration of 2 mM. Quench solution contained 300 mM EDTA (pH 8.0). The malachite green reporter solution contained 0.034% w/v malachite green, 1.04% w/v ammonium molybdate, 1% Tween-20, and 1 M HCl dissolved in H2O.
Assay Protocol: First, 10 μL aliquots of the GroEL protein solution were dispensed into clear, flat-bottom 384-well polystyrene plates. […] After incubating for 45 minutes at 37° C., 10 μL of the EDTA quench solution was added to quench the reaction cycle. Then, 60 μL of the malachite green reporter solution was added and the plates were incubated at room temperature for 10 min. The absorbance of the malachite green-phosphate complex was measured at 600 nm using a Molecular Devices SpectraMax Plus384 microplate reader. A second set of baseline control plates were prepared analogously, but without GroEL protein solution, to correct for possible interference from compound absorbance or turbidity. […] Results presented represent the averages of IC50 values obtained from at least four replicates.
Evaluating analogs for inhibiting GroEL-mediated ATPase activity. […] Thus, we further tested analogs in a well-established GroEL ATPase assay that employed malachite green to monitor inorganic phosphate liberated as GroEL hydrolyzed ATP. Briefly, a solution of GroEL was incubated with test compounds (8-point, 3-fold dilution series) and the assay was initiated by addition of ATP. After incubating for 45 minutes, the ATPase reaction was quenched by the addition of EDTA. Malachite green was then added to the assay to bind and detect free phosphates in solution (absorbance detection at k=600 nm). If analogs inhibited ATPase activity, then there would be no free phosphates for malachite green to bind, leading to minimal absorbance at 600 nm.

native rhodanese = molecular target: T2, native rhodanese (Bos taurus, UniProt P00586); experiment: native rhodanese enzymatic activity counter-screen; assay type: biochemical
T2 sequence (P00586 1-297): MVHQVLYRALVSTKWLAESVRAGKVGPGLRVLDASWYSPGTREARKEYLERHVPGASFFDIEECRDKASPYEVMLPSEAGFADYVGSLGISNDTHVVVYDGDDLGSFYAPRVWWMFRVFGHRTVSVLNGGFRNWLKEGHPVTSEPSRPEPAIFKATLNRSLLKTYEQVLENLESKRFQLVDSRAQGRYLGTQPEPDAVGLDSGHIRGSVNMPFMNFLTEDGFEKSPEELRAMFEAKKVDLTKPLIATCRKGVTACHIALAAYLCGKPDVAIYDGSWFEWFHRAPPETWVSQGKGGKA
Procedure: Counter-screening compounds for inhibition of native rhodanese enzymatic activity. Reagent Preparations & Assay Protocol: Reagents were identical to those used in the GroEL/ES-dRho refolding assay described above; however, the assay protocol differed in the sequence of compound addition to the wells. Compounds were pin-transferred after 50 minute incubation for the refolding cycle, but prior to the addition of the thiocyanate enzymatic assay stock. Thus, the refolding reactions were allowed to proceed for 50 min at 37° C. in the absence of test compounds, but the enzymatic activity of the refolded rhodanese reporter enzyme was monitored in the presence of test compounds (inhibitor concentration range during the enzymatic reporter reaction is 100 μM to 46 nM—3-fold dilutions). IC50 values for the rhodanese reporter enzyme were determined as described above. Results presented represent the averages of IC50 values obtained from at least four replicates.
All compounds were counter-screened for inhibiting the enzymatic activity of the native Rho reporter enzyme as per our previously reported procedure. Results presented represent the averages of IC50 values obtained from at least four replicates.

native MDH = molecular target: T3, native MDH (Sus scrofa, UniProt P00346); experiment: native MDH enzymatic activity counter-screen; assay type: biochemical, pig
T3 sequence (P00346 25-338): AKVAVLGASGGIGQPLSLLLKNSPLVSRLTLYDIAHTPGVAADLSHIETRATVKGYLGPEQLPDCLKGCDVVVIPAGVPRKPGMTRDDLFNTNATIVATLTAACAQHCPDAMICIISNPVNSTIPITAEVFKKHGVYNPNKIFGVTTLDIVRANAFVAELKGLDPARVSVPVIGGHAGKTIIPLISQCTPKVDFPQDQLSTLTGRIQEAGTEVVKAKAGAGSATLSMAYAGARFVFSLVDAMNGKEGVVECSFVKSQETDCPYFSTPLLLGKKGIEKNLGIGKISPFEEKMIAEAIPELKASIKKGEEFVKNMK
Procedure: Reagent Preparations & Assay Protocol: This assay was performed as described above for the GroEL/ES-dMDH refolding assay; however, the assay protocol differed in the sequence of compound addition to the assay plates. The refolding reactions were allowed to proceed for 45 min at 37° C. in the absence of test compounds (complete refolding of MDH occurs), then quenched with the EDTA stock. Compounds were then pin-transferred into the plates after the EDTA quenching step; thus, compound effects are only possible by inhibiting the fully-refolded MDH reporter substrate. […] A340 nm measurements were recorded at 0.5 minutes (start point) and at successive time points until the amount of NADH consumed reached ˜90% (end point, generally between 20-35 minutes). Compounds were tested in 8-point, 3-fold dilution series (62.5 μM to 29 nM during the reporter reaction) in clear, flat-bottom 384-well microtiter plates. IC50 values for the MDH reporter enzyme were determined as described above. Results presented represent the averages of IC50 values obtained from at least five replicates.
Evaluating analogs for inhibiting GroEL/ES-mediated substrate refolding functions. […] We first evaluated all test compounds in our standard GroEL/ES-mediated refolding assays that employ either malate dehydrogenase (MDH) or rhodanese (Rho) as the denatured substrate reporter enzymes. When denatured, these enzymes are efficiently folded by GroEL/ES in the absence of inhibitors, and thus act as reporters to determine the degree of inhibition against the bacterial chaperonin system. Inhibition was examined in the presence of these two orthogonal substrates in order to support that GroEL/ES inhibitors were on-target. To further support on-target effects against GroEL/ES, we counter-screened for inhibition of the native MDH and Rho enzymatic reporter reactions, where test compounds were added after the denatured MDH and Rho substrate enzymes were completely refolded by GroEL/ES.

[1] = compounds added after refolding, read-out: Native Rho Activity IC50
[2] = without NfsB nitroreductase, compounds added after refolding, read-out: Native MDH Activity IC50
[3] = GroEL only, no GroES or dMDH, read-out: GroEL ATPase IC50

T1 sequence (P0A6F5 2-548): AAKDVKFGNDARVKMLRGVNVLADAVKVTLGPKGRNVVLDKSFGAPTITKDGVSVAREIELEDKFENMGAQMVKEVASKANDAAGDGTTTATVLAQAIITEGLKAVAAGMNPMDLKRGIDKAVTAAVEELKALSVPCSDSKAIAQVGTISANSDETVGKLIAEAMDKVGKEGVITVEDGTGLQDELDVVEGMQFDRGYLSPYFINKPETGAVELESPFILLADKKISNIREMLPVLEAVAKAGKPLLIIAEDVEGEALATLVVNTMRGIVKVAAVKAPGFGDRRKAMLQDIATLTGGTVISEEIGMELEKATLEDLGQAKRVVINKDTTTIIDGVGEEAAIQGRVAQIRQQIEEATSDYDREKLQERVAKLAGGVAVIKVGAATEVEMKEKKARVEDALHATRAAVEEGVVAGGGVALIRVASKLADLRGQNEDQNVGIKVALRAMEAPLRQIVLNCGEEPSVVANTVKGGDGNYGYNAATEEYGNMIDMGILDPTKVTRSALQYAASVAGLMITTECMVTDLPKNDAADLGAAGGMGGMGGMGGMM

| Structure (SMILES) | IC50 (E. coli GroEL) | IC50 (native rhodanese) | IC50 (native MDH) | IC50 (native rhodanese; [1]) | IC50 (native MDH; [2]) | IC50 (E. coli GroEL; [3]) |
| --- | --- | --- | --- | --- | --- | --- |
| O=C(N/N=C/c1ccc([N+](=O)[O-])o1)c1ccc(NS(=O)(=O)c2ccc(Br)cc2)cc1 [Compound 27, 4-bromo-N-(4-(2-((5-nitrofuran-2-yl)methylene)hydrazine-1-carbonyl)phenyl)benzenesulfonamide] | > 250 µM | 44 µM | > 63 µM | – | – | – |
| O=C(N/N=C/c1ccc([N+](=O)[O-])o1)c1ccccc1 [Compound 18, N′-((5-nitrofuran-2-yl)methylene)benzohydrazide] | > 250 µM | – | – | 84 µM | – | – |
| CCN(CC)S(=O)(=O)c1cccc(C(=O)N/N=C/c2ccc([N+](=O)[O-])o2)c1 [Compound 25, N,N-diethyl-3-(2-((5-nitrofuran-2-yl)methylene)hydrazine-1-carbonyl)benzenesulfonamide] | > 250 µM | – | – | > 100 µM | > 63 µM | – |
| CCOc1ccc(S(=O)(=O)Nc2ccc(C(=O)N/N=C/c3ccc(O)c4ncccc34)cc2)cc1 [Compound 15, 4-ethoxy-N-(4-(2-((8-hydroxyquinolin-5-yl)methylene)hydrazine-1-carbonyl)phenyl)benzenesulfonamide] | > 250 µM | – | – | > 100 µM | > 63 µM | – |
| CCOc1ccc(S(=O)(=O)Nc2ccc(C(=O)N/N=C/c3ccc([N+](=O)[O-])o3)cc2)cc1 [Compound 28, 4-ethoxy-N-(4-(2-((5-nitrofuran-2-yl)methylene)hydrazine-1-carbonyl)phenyl)benzenesulfonamide] | > 250 µM | – | – | 45 µM | > 63 µM | – |
| COc1ccc(C(=O)N/N=C/c2ccc(O)c3ncccc23)cc1 [Compound 1, N′-((8-hydroxyquinolin-5-yl)methylene)-4-methoxybenzohydrazide] | > 250 µM | – | – | 98 µM | > 63 µM | – |
| O=Cc1ccc([N+](=O)[O-])o1 [Compound 41, reference compound] | > 250 µM | – | – | 32 µM | > 63 µM | – |
| O=C(N/N=C/c1ccc(O)cc1)c1ccccc1 [Compound 36, N′-(4-hydroxybenzylidene)benzohydrazide] | > 250 µM | – | – | > 100 µM | > 63 µM | – |
| O=C(N/N=C/c1ccc(O)c2ncccc12)c1cccc2ccccc12 [Compound 9, N′-((8-hydroxyquinolin-5-yl)methylene)-1-naphthohydrazide] | > 250 µM | – | – | 97 µM | > 63 µM | – |
| O=C(N/N=C/c1ccc(O)c2ncccc12)c1ccc(O)cc1 [Compound 7, 4-hydroxy-N′-((8-hydroxyquinolin-5-yl)methylene)benzohydrazide] | > 250 µM | – | – | 72 µM | > 63 µM | – |
| O=C(N/N=C/c1ccc([N+](=O)[O-])o1)c1ccc(O)cc1 [Nifuroxazide, reference compound] | > 250 µM | 69 µM | > 63 µM | – | – | – |
| COc1ccc(C(=O)N/N=C/c2ccc([N+](=O)[O-])o2)cc1 [Compound 20, 4-methoxy-N′-((5-nitrofuran-2-yl)methylene)benzohydrazide] | > 250 µM | – | – | > 100 µM | – | – |
| O=C(N/N=C/c1ccc([N+](=O)[O-])o1)c1ccccc1Oc1ccccc1 [Compound 23, N′-((5-nitrofuran-2-yl)methylene)-2-phenoxybenzohydrazide] | – | – | – | 43 µM | > 63 µM | – |
| CN(C)c1ccc(C(=O)N/N=C/c2ccc(O)c3ncccc23)cc1 [Compound 8, 4-(dimethylamino)-N′-((8-hydroxyquinolin-5-yl)methylene)benzohydrazide] | > 250 µM | – | – | 67 µM | > 63 µM | – |
| COc1ccc(C(=O)NN)cc1 [Compound 42, reference compound] | > 250 µM | – | – | > 100 µM | > 63 µM | – |
| O=[N+]([O-])c1ccc(O)c2ncccc12 [Nitroxoline, reference compound] | > 250 µM | – | – | 2 µM | > 63 µM | – |
| O=C(N/N=C/c1ccc(O)c2ncccc12)c1ccc(Cl)s1 [Compound 4, 5-chloro-N′-((8-hydroxyquinolin-5-yl)methylene)thiophene-2-carbohydrazide] | > 250 µM | – | – | 14 µM | > 63 µM | – |
| O=C(N/N=C/c1ccc([N+](=O)[O-])o1)c1cccs1 [Compound 16, N′-((5-nitrofuran-2-yl)methylene)thiophene-2-carbohydrazide] | – | – | – | > 100 µM | – | > 250 µM |
| O=C(N/N=C/c1ccc(O)c2ncccc12)c1ccccc1Oc1ccccc1 [Compound 10, N′-((8-hydroxyquinolin-5-yl)methylene)-2-phenoxybenzohydrazide] | > 250 µM | – | – | 89 µM | > 63 µM | – |
| O=C(N/N=C/c1ccc([N+](=O)[O-])o1)c1ccc(Cl)s1 [Compound 17, 5-chloro-N′-((5-nitrofuran-2-yl)methylene)thiophene-2-carbohydrazide] | – | – | – | 56 µM | – | > 250 µM |
| CN(C)c1ccc(C(=O)N/N=C/c2ccc([N+](=O)[O-])o2)cc1 [Compound 21, 4-(dimethylamino)-N′-((5-nitrofuran-2-yl)methylene)benzohydrazide] | > 250 µM | – | – | > 100 µM | – | – |
| O=C(N/N=C/c1ccc([N+](=O)[O-])o1)c1ccncc1 [Compound 19, N′-((5-nitrofuran-2-yl)methylene)isonicotinohydrazide] | > 250 µM | – | – | 38 µM | – | – |
| O=C1CN(/N=C/c2ccc([N+](=O)[O-])o2)C(=O)N1 [Nitrofurantoin, reference compound] | > 250 µM | > 100 µM | – | – | – | – |
